Test results published in ChEMBL document CHEMBL3991601, “The target landscape of clinical kinase drugs” (Science, 2017).
pKd: −log10 of the molar value. Activity calls are given as the source filed them. Rule as the data show it, for most assays here: actives have a measured Kd and inactives only a lower limit.

Legend:
[1] = molecular target: Deoxycytidine kinase (Homo sapiens, UniProt P27707)
[2] = molecular target: T1, Heme oxygenase 2 (Homo sapiens, UniProt P30519)
T1 sequence (P30519 whole entry): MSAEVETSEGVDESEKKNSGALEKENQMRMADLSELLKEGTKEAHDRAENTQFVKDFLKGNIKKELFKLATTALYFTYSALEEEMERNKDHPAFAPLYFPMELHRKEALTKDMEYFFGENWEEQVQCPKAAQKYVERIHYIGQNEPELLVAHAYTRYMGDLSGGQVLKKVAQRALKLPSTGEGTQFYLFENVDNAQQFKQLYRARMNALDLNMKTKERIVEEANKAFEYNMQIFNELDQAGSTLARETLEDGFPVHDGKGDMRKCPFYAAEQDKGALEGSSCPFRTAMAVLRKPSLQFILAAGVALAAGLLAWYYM

[3] = molecular target: Mitogen-activated protein kinase kinase kinase 4 (Homo sapiens, UniProt Q9Y6R4)
[4] = molecular target: Receptor-interacting serine/threonine-protein kinase 2 (Homo sapiens, UniProt O43353)
[5] = molecular target: T2, Serine/threonine-protein kinase STK11 (Homo sapiens, UniProt Q15831)
T2 sequence (Q15831 whole entry): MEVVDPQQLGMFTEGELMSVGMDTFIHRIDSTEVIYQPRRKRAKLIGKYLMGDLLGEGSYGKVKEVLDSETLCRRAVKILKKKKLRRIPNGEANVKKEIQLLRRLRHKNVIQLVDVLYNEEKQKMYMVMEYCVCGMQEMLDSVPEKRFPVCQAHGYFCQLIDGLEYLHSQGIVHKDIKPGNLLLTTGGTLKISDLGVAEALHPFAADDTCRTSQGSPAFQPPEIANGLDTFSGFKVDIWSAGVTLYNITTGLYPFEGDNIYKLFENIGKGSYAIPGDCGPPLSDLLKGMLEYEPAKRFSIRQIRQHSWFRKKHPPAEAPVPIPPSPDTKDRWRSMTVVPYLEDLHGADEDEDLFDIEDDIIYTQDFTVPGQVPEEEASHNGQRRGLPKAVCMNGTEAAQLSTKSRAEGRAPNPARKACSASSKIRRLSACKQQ

[6] = molecular target: T3, Serine/threonine-protein kinase 3 (Homo sapiens, UniProt Q13188)
T3 sequence (Q13188 whole entry): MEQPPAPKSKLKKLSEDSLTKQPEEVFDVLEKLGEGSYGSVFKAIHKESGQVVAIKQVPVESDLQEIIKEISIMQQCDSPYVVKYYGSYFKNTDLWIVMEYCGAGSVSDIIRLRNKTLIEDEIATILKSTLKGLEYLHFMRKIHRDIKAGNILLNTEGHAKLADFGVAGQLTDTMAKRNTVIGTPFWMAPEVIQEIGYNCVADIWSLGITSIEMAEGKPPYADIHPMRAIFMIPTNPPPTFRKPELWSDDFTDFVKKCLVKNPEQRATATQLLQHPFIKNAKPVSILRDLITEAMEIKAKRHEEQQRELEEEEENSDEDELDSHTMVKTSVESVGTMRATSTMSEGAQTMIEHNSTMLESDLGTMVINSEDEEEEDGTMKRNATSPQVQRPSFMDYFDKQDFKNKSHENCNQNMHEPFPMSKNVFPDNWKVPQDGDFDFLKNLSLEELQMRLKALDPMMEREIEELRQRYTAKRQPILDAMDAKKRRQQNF

[7] = molecular target: T4, Serine/threonine-protein kinase ULK1 (Homo sapiens, UniProt O75385)
T4 sequence (O75385 whole entry): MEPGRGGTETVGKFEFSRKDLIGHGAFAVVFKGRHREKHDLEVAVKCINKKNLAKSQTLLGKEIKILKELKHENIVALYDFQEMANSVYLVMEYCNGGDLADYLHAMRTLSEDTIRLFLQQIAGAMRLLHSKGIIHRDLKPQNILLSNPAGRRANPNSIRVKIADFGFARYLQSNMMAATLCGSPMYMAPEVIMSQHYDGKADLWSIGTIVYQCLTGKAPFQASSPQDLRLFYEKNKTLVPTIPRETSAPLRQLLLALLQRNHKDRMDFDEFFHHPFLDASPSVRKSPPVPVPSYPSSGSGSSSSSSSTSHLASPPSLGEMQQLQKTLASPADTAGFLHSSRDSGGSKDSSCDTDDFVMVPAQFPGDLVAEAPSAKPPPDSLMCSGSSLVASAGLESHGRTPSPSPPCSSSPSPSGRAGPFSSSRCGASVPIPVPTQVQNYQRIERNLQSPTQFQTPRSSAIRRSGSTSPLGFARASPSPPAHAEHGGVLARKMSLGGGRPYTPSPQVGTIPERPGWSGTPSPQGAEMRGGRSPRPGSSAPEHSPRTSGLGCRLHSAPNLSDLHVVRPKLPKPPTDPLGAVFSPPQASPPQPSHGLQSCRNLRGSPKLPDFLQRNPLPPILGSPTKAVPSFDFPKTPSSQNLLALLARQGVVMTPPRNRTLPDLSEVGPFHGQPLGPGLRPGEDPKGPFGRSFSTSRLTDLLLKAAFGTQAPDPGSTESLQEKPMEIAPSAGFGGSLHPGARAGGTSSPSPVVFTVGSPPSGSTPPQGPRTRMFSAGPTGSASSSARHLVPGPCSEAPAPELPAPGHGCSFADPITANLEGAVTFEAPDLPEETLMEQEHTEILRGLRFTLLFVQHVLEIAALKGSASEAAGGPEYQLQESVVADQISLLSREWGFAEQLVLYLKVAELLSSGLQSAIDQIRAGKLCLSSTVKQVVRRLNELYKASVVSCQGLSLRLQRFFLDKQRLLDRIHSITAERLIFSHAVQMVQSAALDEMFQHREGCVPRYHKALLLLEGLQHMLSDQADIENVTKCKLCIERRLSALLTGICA
Also: in the data inactive means no Kd found up to 30 µM.

Chain of Receptor-interacting serine/threonine-protein kinase 2 (O43353 whole entry): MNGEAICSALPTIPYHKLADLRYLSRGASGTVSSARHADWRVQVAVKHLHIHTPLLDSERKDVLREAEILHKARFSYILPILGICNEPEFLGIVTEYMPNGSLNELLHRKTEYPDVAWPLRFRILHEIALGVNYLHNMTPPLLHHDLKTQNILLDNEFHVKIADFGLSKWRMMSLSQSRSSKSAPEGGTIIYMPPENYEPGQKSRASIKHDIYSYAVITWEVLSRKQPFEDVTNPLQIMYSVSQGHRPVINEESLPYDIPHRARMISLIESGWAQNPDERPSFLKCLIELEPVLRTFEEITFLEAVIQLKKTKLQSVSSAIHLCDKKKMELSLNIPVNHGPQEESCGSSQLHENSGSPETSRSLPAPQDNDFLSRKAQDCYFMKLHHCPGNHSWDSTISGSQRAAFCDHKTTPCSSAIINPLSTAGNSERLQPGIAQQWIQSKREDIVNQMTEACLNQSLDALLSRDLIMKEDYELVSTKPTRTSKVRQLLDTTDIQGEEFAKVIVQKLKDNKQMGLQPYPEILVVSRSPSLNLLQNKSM
Chain of Deoxycytidine kinase (P27707 whole entry): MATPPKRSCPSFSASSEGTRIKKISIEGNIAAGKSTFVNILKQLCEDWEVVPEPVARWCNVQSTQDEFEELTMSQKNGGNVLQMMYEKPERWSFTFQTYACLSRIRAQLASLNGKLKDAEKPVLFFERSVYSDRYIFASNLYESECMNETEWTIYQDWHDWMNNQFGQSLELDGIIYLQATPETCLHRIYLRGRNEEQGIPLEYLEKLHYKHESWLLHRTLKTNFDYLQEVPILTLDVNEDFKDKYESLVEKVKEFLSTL
Chain of Mitogen-activated protein kinase kinase kinase 4 (Q9Y6R4 whole entry): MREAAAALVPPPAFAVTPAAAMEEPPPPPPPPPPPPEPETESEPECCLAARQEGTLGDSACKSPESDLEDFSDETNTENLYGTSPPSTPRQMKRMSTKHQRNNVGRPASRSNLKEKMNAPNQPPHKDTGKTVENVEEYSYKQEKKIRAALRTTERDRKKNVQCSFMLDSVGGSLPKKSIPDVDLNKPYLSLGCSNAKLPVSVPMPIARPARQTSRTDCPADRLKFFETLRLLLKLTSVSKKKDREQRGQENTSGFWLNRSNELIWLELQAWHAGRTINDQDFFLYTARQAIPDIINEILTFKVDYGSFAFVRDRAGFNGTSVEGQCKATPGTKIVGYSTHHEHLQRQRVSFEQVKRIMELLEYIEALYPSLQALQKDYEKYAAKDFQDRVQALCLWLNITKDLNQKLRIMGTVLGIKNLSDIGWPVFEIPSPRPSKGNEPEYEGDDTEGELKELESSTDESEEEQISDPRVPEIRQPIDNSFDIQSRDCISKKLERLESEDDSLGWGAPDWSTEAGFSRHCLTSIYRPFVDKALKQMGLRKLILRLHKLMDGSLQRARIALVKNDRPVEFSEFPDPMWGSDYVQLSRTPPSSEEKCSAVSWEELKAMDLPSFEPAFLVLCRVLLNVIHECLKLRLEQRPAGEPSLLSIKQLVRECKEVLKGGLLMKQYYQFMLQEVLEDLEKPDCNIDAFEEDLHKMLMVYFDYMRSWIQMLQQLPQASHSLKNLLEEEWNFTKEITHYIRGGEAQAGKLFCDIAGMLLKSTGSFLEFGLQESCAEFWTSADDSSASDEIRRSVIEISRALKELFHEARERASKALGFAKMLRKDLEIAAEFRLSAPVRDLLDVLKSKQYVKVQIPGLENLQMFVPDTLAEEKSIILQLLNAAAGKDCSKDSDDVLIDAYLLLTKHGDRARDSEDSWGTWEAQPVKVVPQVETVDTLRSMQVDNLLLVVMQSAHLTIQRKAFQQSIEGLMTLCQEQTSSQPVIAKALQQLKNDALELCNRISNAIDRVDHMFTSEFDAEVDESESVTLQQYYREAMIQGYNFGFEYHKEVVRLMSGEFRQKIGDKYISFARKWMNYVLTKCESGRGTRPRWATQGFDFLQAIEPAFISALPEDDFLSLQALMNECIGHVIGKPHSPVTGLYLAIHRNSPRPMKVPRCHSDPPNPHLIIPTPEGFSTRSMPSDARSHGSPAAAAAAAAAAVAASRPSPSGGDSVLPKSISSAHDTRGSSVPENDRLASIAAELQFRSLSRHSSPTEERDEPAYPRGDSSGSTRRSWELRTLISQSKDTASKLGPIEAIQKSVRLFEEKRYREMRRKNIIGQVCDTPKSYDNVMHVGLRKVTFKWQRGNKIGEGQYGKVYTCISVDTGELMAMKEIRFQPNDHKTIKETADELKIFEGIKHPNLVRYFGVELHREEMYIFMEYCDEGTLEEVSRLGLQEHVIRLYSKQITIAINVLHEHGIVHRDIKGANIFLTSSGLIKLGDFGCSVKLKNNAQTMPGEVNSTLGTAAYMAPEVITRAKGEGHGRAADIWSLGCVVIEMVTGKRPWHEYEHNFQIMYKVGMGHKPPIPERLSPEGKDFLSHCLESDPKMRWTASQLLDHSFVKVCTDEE

Row | Kd [1] | pKd [2] | Kd [3] | Kd [4] | Kd [5] | Kd [6] | Kd [7] | Kd [2] | pKd [5] | Compound
1 | > 30 µM (inactive) | 6.92 | > 30 µM (inactive) | > 30 µM (inactive) | > 30 µM (inactive) | > 30 µM (inactive) | > 30 µM (inactive) | – | – | O=C1NC(=O)[C@@H](c2cn3c4c(cccc24)CCC3)[C@@H]1c1c[nH]c2ccccc12 [TIVANTINIB]
2 | > 30 µM (inactive) | – | > 30 µM (inactive) | > 30 µM (inactive) | > 30 µM (inactive) | > 30 µM (inactive) | > 30 µM (inactive) | > 30 µM (inactive) | – | C[C@@H](NC(=O)c1ncnc(N)c1Cl)c1ncc(C(=O)Nc2cc(C(F)(F)F)c(Cl)cn2)s1 [TOVORAFENIB]
3 | > 30 µM (inactive) | – | > 30 µM (inactive) | > 30 µM (inactive) | – | 0.462 µM (active) | > 30 µM (inactive) | > 30 µM (inactive) | 5.51 | CC(C)c1cc(CNc2nc(Nc3cc(C4CC4)[nH]n3)cc(N3CCN(C)CC3)n2)on1 [XL-228]
4 | > 30 µM (inactive) | – | > 30 µM (inactive) | > 30 µM (inactive) | > 30 µM (inactive) | > 30 µM (inactive) | > 30 µM (inactive) | > 30 µM (inactive) | – | C[C@@H](N)c1ccc(C(=O)Nc2ccnc3[nH]ccc23)cc1 [Y-39983]
5 | > 30 µM (inactive) | – | > 30 µM (inactive) | > 30 µM (inactive) | > 30 µM (inactive) | 0.311 µM (active) | > 30 µM (inactive) | > 30 µM (inactive) | – | CN1C/C=C/CCOc2cccc(c2)-c2ccnc(n2)Nc2cccc(c2)C1 [ZOTIRACICLIB]

Row | Compound | Kd [1] | pKd [2] | Kd [3] | Kd [4] | Kd [5] | Kd [6] | Kd [7] | Kd [2] | pKd [5]
6 | Cc1cc(Nc2ncnc3ccc(NC4=NC(C)(C)CO4)cc23)ccc1Oc1ccn2ncnc2c1 [TUCATINIB] | > 30 µM (inactive) | – | > 30 µM (inactive) | > 30 µM (inactive) | > 30 µM (inactive) | > 30 µM (inactive) | > 30 µM (inactive) | > 30 µM (inactive) | –
